This is an account of results in US7262173B2, “Chemosensitizing with liposomes containing oligonucleotides” (Georgetown University, priority 1997, dated 2007).

The data set relates to SQ-20B cells. Nature of the data set: Intracellular raf ODN stability assay (PC/CHOL/DDAB liposomes). In kind it is cell-based, human. The conditions noted are these: 10 μM for 4 hours, then 20% FBS medium up to 24 hours; denaturing gel. Here is the method:
FIG. 2: (a) Time-course of cellular uptake of LE-ATG-AS raf ODN (SEQ ID NO:1), SQ-20B cells were incubated with ^32P-5 end labeled and an excess of unlabeled LE-ATG-AS raf ODN (SEQ ID NO:1) (10 μM) for indicated times as described in the experimental procedures. Results are mean±s.d from two independent experiments each performed in duplicate, (b) Intracellular stability of LE-ATG-AS raf ODN (SEQ ID NO:1). Cells were incubated with ^32P-end labeled and an excess of unlabeled LE-ATG-AS raf ODN (SEQ ID NO:1) (10 μM in 1% FBS containing medium for […], washed with PBS and then incubations continued in 20% FBS containing medium for 0 hour (lane 2), 2 hours (lane 3), 8 hours (lane 4), 12 hours (lane 5), and 24 hours (lane 6). Cells were lysed and ODNs in various samples were analyzed by denaturing gel electrophoresis as explained in the experimental procedures. Lane 2, radiolabeled control LE-ATG-AS raf ODN (SEQ ID NO: 1); 15-mer, ATG-AS raf ODN (SEQ ID NO:1) migrations of xylene cyanol (XC) and bromophenol blue (BP) are indicated.
For ODN stability studies, cells were seeded and incubated with 10 μM ^32P-labeled LE-ATG-AS raf ODN (SEQ ID NO:1) or ATG-AS raf ODN (SEQ ID NO:1) (1×10^6 c.p.m./ml) for 4 h at 37° C. in 1% FBS containing medium. […] ODNs were extracted with phenol: chloroform, and the aqueous fractions were collected and aliquots were analyzed by scintillation counting. […]

Turning to “5′-GTG-CTCCATTGATGC-3′ (antisense GTGCTCCATTGATGC; DNA, linkages s1 o12 s1 (s phosphorothioate, o phosphodiester), methylation of C not given here) [ATG-AS raf ODN, antisense ODN to translation initiation site of human c-raf-1 cDNA; one terminal base linkage at each end phosphorothioate]”, the “intracellular integrity of ODN” value is recorded as “no detectable ODN at all time-points”.
